Reference: US9676782B2, “Substituted pyrazolo[1,5-a]pyrazines as negative allosteric modulators of metabotropic glutamate receptor 3” (Vanderbilt University, priority 2014, dated 2017)
Read-outs that look alike come from different tables or passages of the source.

Legend:
rat mGlu5 = rat mGlu5 (Rattus norvegicus (Rat), UniProt P31424); assay: mGlu5 Ca2+ flux assay; assay type: cell-based; conditions: for Fold selectivity (mGlu3 vs. mGlu5): ratio of rat mGlu5 EC50 or IC50 to rat mGlu3 IC50; for Emax at 30 µM: read-out: rat mGlu5 Glu max (%)
Procedure: (§1) The cells were grown overnight at 37° C. in the presence of 5% CO2. […] Dye was removed, 20 μL of assay buffer was added, and the plate was incubated for 5 minutes at room temperature. Ca^2+ flux was measured using the Functional Drug Screening System (FDSS7000, Hamamatsu, Japan). […] All test compounds were dissolved and diluted to a concentration of 10 mM in 100% DMSO. […] Calcium fluorescence measures were recorded as fold over basal fluorescence; raw data was then normalized to the maximal response to glutamate. […] The raw data file containing all time points was used as the data source in the analysis template. This was saved by the FDSS as a tab-delimited text file. Data were normalized using a static ratio function (F/F0) for each measurement of the total 360 values per well divided by each well's initial value. […] This is sufficient time to capture the peak amplitude of the cellular calcium response. […] EC50 values for test compounds were generated by fitting the normalized values versus the log of the test compound concentration (in mol/L) using a 4 parameter logistic equation where none of the parameters were fixed. Each of the three values collected at each concentration of test compound were weighted evenly.

rat mGlu3 = rat mGlu3 (Rattus norvegicus (Rat), UniProt P31422); assay: mGlu3 Ca2+ flux assay; assay type: cell-based; conditions: for IC50: read-out: rat mGlu3 IC50; for remaining activity at 30 µM: amplitude of response at 30 μM test compound as % of maximal response to glutamate, read-out: rat mGlu3 Glu max (%)
Procedure: as §1, with “for 10” for “for 5”

[1] = read-out: rat mGlu5 EC50 or IC50
[2] = NAM potency, decrease of glutamate EC80 response, >30,000 = no measurable activity, >10,000 = no plateau
[3] = PAM, amplitude of response at 30 μM test compound as % of maximal response to glutamate

Sequence of rat mGlu5 (P31424 21-1203): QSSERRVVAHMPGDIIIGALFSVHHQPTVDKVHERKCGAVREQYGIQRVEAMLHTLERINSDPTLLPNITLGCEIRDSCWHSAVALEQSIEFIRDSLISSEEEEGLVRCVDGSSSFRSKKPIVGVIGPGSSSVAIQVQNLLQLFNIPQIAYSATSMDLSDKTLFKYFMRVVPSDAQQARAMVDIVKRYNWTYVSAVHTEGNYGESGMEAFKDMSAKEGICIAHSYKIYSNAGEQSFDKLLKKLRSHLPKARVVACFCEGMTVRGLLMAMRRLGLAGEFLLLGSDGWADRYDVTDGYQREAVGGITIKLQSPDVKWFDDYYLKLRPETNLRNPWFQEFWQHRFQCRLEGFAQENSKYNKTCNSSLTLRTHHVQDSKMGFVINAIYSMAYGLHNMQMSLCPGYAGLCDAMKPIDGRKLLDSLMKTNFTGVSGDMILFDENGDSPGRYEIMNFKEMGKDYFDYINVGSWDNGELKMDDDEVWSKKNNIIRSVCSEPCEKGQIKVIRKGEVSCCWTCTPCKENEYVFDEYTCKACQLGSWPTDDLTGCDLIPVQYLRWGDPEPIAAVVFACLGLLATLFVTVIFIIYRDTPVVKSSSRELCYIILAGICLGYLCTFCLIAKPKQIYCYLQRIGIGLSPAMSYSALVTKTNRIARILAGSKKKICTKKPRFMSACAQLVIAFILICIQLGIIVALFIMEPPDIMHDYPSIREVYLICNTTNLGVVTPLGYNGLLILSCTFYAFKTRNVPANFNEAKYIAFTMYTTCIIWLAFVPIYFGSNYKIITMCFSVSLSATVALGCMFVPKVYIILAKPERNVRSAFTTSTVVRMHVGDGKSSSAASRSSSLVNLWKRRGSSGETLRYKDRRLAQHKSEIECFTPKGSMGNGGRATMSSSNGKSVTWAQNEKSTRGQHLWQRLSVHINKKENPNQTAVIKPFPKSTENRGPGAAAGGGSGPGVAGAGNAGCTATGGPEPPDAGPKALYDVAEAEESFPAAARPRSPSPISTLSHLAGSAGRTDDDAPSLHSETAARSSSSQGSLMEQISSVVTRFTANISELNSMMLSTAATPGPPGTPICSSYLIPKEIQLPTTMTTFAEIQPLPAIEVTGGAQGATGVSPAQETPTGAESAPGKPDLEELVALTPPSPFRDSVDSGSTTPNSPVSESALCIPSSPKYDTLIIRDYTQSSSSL
Sequence of rat mGlu3 (P31422 23-879): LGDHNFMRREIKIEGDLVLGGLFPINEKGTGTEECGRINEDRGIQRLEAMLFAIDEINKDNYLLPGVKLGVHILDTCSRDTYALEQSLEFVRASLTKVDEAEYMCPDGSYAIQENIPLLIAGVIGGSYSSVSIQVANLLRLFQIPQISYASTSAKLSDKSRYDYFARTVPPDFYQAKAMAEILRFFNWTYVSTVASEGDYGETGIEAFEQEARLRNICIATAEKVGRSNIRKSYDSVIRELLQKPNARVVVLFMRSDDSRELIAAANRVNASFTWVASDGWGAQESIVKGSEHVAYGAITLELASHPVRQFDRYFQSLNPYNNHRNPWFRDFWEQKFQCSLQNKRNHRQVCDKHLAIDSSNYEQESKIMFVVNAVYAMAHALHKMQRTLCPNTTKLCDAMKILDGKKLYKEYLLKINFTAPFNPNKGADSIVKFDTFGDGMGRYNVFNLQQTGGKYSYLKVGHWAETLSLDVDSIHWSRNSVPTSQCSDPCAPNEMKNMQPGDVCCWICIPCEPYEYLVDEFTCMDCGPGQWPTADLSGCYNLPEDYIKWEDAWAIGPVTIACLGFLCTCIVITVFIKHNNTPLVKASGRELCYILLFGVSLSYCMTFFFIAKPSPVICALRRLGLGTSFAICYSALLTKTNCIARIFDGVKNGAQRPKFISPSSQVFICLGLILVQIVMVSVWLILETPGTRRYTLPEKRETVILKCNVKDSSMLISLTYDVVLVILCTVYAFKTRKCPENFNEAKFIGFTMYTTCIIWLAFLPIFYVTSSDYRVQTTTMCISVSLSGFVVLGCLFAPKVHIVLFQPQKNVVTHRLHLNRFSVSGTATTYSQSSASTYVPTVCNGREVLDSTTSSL

| SMILES | Fold selectivity (mGlu3 vs. mGlu5) (rat mGlu5) | EC50 (rat mGlu5; [1]) [µM] | IC50 (rat mGlu3; [2]) [nM] | remaining activity at 30 µM (rat mGlu3) [%] | IC50 (rat mGlu3) [nM] | Emax at 30 µM (rat mGlu5; [3]) [%] | IC50 (rat mGlu5; compound noted as NAM or partial antagonist (PAnt) at mGlu5, glutamate EC80, read-out: rat mGlu5 EC50 or IC50) [µM] | Emax at 30 µM (rat mGlu5; compound noted as NAM or partial antagonist (PAnt) at mGlu5, response at 30 μM as % of maximal glutamate response) [%] |
| --- | --- | --- | --- | --- | --- | --- | --- | --- |
| COc1ccc(N(C)Cc2cc3n(n2)CCN(c2ccccc2Cl)C3=O)cc1 [Compound 100, 5-(2-chlorophenyl)-2-(((4-methoxyphenyl)(methyl)amino)methyl)-6,7-dihydropyrazolo[1,5-a]pyrazin-4(5H)-one] | >38 | > 30 | 777 | 1.8 |  |  |  |  |
| CCCN(Cc1cc2n(n1)CCN(c1ccc(F)c(F)c1)C2=O)c1ccc(OC)cc1 [Compound 167, 5-(3,4-Difluorophenyl)-2-(((4-methoxyphenyl)(propyl)amino)methyl)-6,7-dihydropyrazolo[1,5-a]pyrazin-4(5H)-one] | 8.06 | > 30 |  | 1.32 | 3720 |  |  |  |
| Cc1ccccc1NCc1cc2n(n1)[C@@H](C)CN(c1ccc(F)cc1)C2=O [Compound 45, (S)-5-(4-fluorophenyl)-7-methyl-2-((o-tolylamino)methyl)-6,7-dihydropyrazolo[1,5-a]pyrazin-4(5H)-one] | >2.9 | > 10 | 3340 | 1.32 |  | 37.1 |  |  |
| COc1ccc(N(C)Cc2cc3n(n2)CCN(c2ccccc2C#N)C3=O)cc1 [Compound 112, 2-(2-(((4-methoxyphenyl)(methyl)amino)methyl)-4-oxo-6,7-dihydropyrazolo[1,5-a]pyrazin-5(4H)-yl)benzonitrile] | >7.9 | > 30 | 3790 | 1.1 |  |  |  |  |
| COc1ccc(N(C)Cc2cc3n(n2)CCN(c2ccccn2)C3=O)cc1 [Compound 117, 2-(((4-methoxyphenyl)(methyl)amino)methyl)-5-(pyridin-2-yl)-6,7-dihydropyrazolo[1,5-a]pyrazin-4(5H)-one] | >10 | > 30 | 2730 | 1.59 |  |  |  |  |
| COc1ccc(N(C)Cc2cc3n(n2)CCN(c2cccc(F)c2F)C3=O)cc1 [Compound 107, 5-(2,3-difluorophenyl)-2-(((4-methoxyphenyl)(methyl)amino)methyl)-6,7-dihydropyrazolo[1,5-a]pyrazin-4(5H)-one] | >29 | > 30 | 1030 | 1.67 |  |  |  |  |
| O=C1c2cc(CNc3ccccn3)nn2CCN1c1ccc(F)cc1 [Compound 156, 5-(4-fluorophenyl)-2-((pyridin-2-ylamino)methyl)-6,7-dihydropyrazolo[1,5-a]pyrazin-4(5H)-one] | >3.1 |  | 3190 | -1.17 |  |  | > 10 | 49.1 |
| C[C@H]1CN(c2ccc(F)cc2)C(=O)c2cc(CNc3ccc(Cl)cc3)nn21 [Compound 61, (S)-2-(((4-chlorophenyl)amino)methyl)-5-(4-fluorophenyl)-7-methyl-6,7-dihydropyrazolo[1,5-a]pyrazin-4(5H)-one] | 4.69 | 6.15 | 1310 | 2.22 |  | 80.3 |  |  |
| Cc1ccccc1NCc1cc2n(n1)CCN(c1ccc(F)cc1)C2=O [Compound 4, 5-(4-fluorophenyl)-2-((o-tolylamino)methyl)-6,7-dihydropyrazolo[1,5-a]pyrazin-4(5H)-one] | >4.1 | > 10 | 2390 | 2.62 |  | 42.2 |  |  |
| C[C@@H]1CN(c2ccc(F)cc2)C(=O)c2cc(CNc3cccc(F)c3F)nn21 [Compound 68, (R)-2-(((2,3-difluorophenyl)amino)methyl)-5-(4-fluorophenyl)-7-methyl-6,7-dihydropyrazolo[1,5-a]pyrazin-4(5H)-one] | >8.1 | > 10 | 1230 | 2.68 |  | 53.2 |  |  |
| COc1ccc(N(C)Cc2cc3n(n2)CCN(c2ccccc2OC)C3=O)cc1 [Compound 119, 5-(2-methoxyphenyl)-2-(((4-methoxyphenyl)(methyl)amino)methyl)-6,7-dihydropyrazolo[1,5-a]pyrazin-4(5H)-one] | >9.1 | > 30 | 3280 | 1.3 |  |  |  |  |
| CN(Cc1cc2n(n1)CCN(c1ccc(F)cc1)C2=O)c1cccc(F)c1 [Compound 86, 5-(4-fluorophenyl)-2-(((3-fluorophenyl)(methyl)amino)methyl)-6,7-dihydropyrazolo[1,5-a]pyrazin-4(5H)-one] | 13.06 | 7.76 | 594 | 1.68 |  | 110 |  |  |
| COc1ccc(N(C)Cc2cc3n(n2)CCN(c2ccc(F)cn2)C3=O)cc1 [Compound 122, 5-(5-fluoropyridin-2-yl)-2-(((4-methoxyphenyl)(methyl)amino)methyl)-6,7-dihydropyrazolo[1,5-a]pyrazin-4(5H)-one] | >26 | > 30 | 1140 | 1.4 |  |  |  |  |
| COc1ccc(N(C)Cc2cc3n(n2)CCN(c2ccccc2C)C3=O)cc1 [Compound 111, 2-(((4-methoxyphenyl)(methyl)amino)methyl)-5-(o-tolyl)-6,7-dihydropyrazolo[1,5-a]pyrazin-4(5H)-one] | >15 | > 30 | 2000 | 0.74 |  |  |  |  |
| COc1ccccc1NCc1cc2n(n1)CCN(c1ccc(F)cc1)C2=O [Compound 6, 5-(4-fluorophenyl)-2-(((2-methoxyphenyl)amino)methyl)-6,7-dihydropyrazolo[1,5-a]pyrazin-4(5H)-one] | >9.8 | > 30 | 3040 | 0.98 |  |  |  |  |
| COc1cc(F)cc(N2CCn3nc(CNc4ccc(OC(F)F)cc4F)cc3C2=O)c1 [Compound 147, 2-(((4-(difluoromethoxy)-2-fluorophenyl)amino)methyl)-5-(3-fluoro-5-methoxyphenyl)-6,7-dihydropyrazolo[1,5-a]pyrazin-4(5H)-one] | >23 | > 30 | 1260 | 1.67 |  |  |  |  |
| COc1ccc(N(C)Cc2cc3n(n2)CCN(c2ccc(C#N)cc2)C3=O)cc1 [Compound 118, 4-(2-(((4-methoxyphenyl)(methyl)amino)methyl)-4-oxo-6,7-dihydropyrazolo[1,5-a]pyrazin-5(4H)-yl)benzonitrile] | >15 | > 30 | 1970 | 1.63 |  |  |  |  |
| Cc1ccccc1NCc1cc2n(n1)[C@H](C)CN(c1ccc(F)cc1)C2=O [Compound 44, (R)-5-(4-fluorophenyl)-7-methyl-2-((o-tolylamino)methyl)-6,7-dihydropyrazolo[1,5-a]pyrazin-4(5H)-one] | >3.7 | > 10 | 2670 | -0.26 |  | 23.9 |  |  |
| O=C1c2cc(CNc3ccc(OC(F)F)cc3F)nn2CCN1c1ccccn1 [Compound 151, 2-(((4-(difluoromethoxy)-2-fluorophenyl)amino)methyl)-5-(pyridin-2-yl)-6,7-dihydropyrazolo[1,5-a]pyrazin-4(5H)-one] | >31 | > 30 | 943 | 1.14 |  |  |  |  |
| C[C@@H]1CN(c2ccc(F)cc2)C(=O)c2cc(CNc3c(F)cccc3F)nn21 [Compound 72, (R)-2-(((2,6-difluorophenyl)amino)methyl)-5-(4-fluorophenyl)-7-methyl-6,7-dihydropyrazolo[1,5-a]pyrazin-4(5H)-one] |  |  |  | 4.1 |  | 59.9 |  |  |
| O=C1c2cc(CNc3c(F)cccc3F)nn2CCN1c1ccc(F)cc1 [Compound 32, 2-(((2,6-difluorophenyl)amino)methyl)-5-(4-fluorophenyl)-6,7-dihydropyrazolo[1,5-a]pyrazin-4(5H)-one] | 8.41 | 8.83 | 1050 | 1.25 |  | 84.1 |  |  |
